Test results from US12540120B2, “Herbicidal compounds” (SYNGENTA CROP PROTECTION AG, priority 2019, dated 2026).

How the values were obtained:
Format in all cases: in vivo
[1] = test system: Amaranthus retoflexus (AMARE); assay: B2 Post-Emergence Efficacy—Test 2; details: post-emergence application, 250 g/ha, evaluated after 13 days (Test 2)
Description: (§1) B2 Post-Emergence Efficacy—Test 2 Seeds of a variety of test species are sown in standard soil in pots:—Solanum nigrum (SOLNI), Amaranthus retoflexus (AMARE), Setaria faberi (SETFA), Echinochloa crus-galli (ECHCG), Ipomoea hederacea (IPOHE), Lolium perenne (LOLPE). After 8 days cultivation (post-emergence) under controlled conditions in a glasshouse (at 24/16° C., day/night; 14 hours light; 65% humidity), the plants are sprayed with an aqueous spray solution derived from the formulation of the technical active ingredient in acetone/water (50:50) solution containing 0.5% Tween 20 (polyoxyethylene sorbitan monolaurate, CAS RN 9005-64-5). Compounds are applied at 250 g/ha. The test plants are then grown in a glasshouse under controlled conditions in a glasshouse (at 24/16° C., day/night; 14 hours light; 65% humidity) and watered twice daily. After 13 days, the test is evaluated for the percentage damage caused to the plant. The biological activities are assessed on a five point scale (5=80-100%; 4=60-79%; 3=40-59%; 2=20-39%; 1=0-19%). A blank value in the table is indicative that the compound was not tested on that species.

[2] = test system: Echinochloa crus-galli (ECHCG); assay: B2 Post-Emergence Efficacy—Test 2; details: post-emergence application, 250 g/ha, evaluated after 13 days (Test 2)
Description: as §1

[3] = test system: Ipomoea hederacea (IPOHE); assay: B2 Post-Emergence Efficacy—Test 2; details: post-emergence application, 250 g/ha, evaluated after 13 days (Test 2)
Description: as §1

Lolium perenne (LOLPE) [4] = assay: B2 Post-Emergence Efficacy—Test 2; details: post-emergence application, 250 g/ha, evaluated after 13 days (Test 2)
Description: as §1

Setaria faberi (SETFA) [5] = assay: B2 Post-Emergence Efficacy—Test 2; details: post-emergence application, 250 g/ha, evaluated after 13 days (Test 2)
Description: as §1

Solanum nigrum (SOLNI) [6] = assay: B2 Post-Emergence Efficacy—Test 2; details: post-emergence application, 250 g/ha, evaluated after 13 days (Test 2)
Description: as §1

[7] = test system: Amaranthus retoflexus (AMARE); assay: B5 Pre-Emergence Efficacy—Test 2; details: 250 g/ha, evaluated after 13 days
Description: (§2) B5 Pre-Emergence Efficacy—Test 2 Seeds of a variety of test species were sown in standard soil in pots: Solanum nigrum (SOLNI), Amaranthus retoflexus (AMARE), Setaria faberi (SETFA), Echinochloa crus-galli (ECHCG), Ipomoea hederacea (IPOHE), Lolium perenne (LOLPE). After cultivation for one day (pre-emergence) under controlled conditions in a glasshouse (at 24/16° C., day/night; 14 hours light; 65% humidity), the plants were sprayed with an aqueous spray solution derived from the formulation of the technical active ingredient in acetone/water (50:50) solution containing 0.5% Tween 20 (polyoxyethelyene sorbitan monolaurate, CAS RN 9005-64-5). Compounds are applied at 250 g/ha. The test plants were then grown in a glasshouse under controlled conditions (at 24/16° C., day/night; 14 hours light; 65% humidity) and watered twice daily. After 13 days, the test is evaluated for the percentage damage caused to the plant. The biological activities are assessed on a five point scale (5=80-100%; 4=60-79%; 3=40-59%; 2=20-39%; 1=0-19%). A blank value in the table is indicative that the compound was not tested on that species.

Solanum nigrum (SOLNI) [8] = assay: B5 Pre-Emergence Efficacy—Test 2; details: 250 g/ha, evaluated after 13 days
Description: as §2

[9] = test system: Echinochloa crus-galli (ECHCG); assay: B5 Pre-Emergence Efficacy—Test 2; design: key: 5-point scale: 5=80-100%, 4=60-79%, 3=40-59%, 2=20-39%, 1=0-19% damage; details: 250 g/ha, evaluated after 13 days
Description: as §2

[10] = test system: Ipomoea hederacea (IPOHE); assay: B5 Pre-Emergence Efficacy—Test 2; design: key: 5-point scale: 5=80-100%, 4=60-79%, 3=40-59%, 2=20-39%, 1=0-19% damage; details: 250 g/ha, evaluated after 13 days
Description: as §2

Lolium perenne (LOLPE) [11] = assay: B5 Pre-Emergence Efficacy—Test 2; design: key: 5-point scale: 5=80-100%, 4=60-79%, 3=40-59%, 2=20-39%, 1=0-19% damage; details: 250 g/ha, evaluated after 13 days
Description: as §2

Setaria faberi (SETFA) [12] = assay: B5 Pre-Emergence Efficacy—Test 2; design: key: 5-point scale: 5=80-100%, 4=60-79%, 3=40-59%, 2=20-39%, 1=0-19% damage; details: 250 g/ha, evaluated after 13 days
Description: as §2

Compound | percentage damage caused to the plant, five point scale, AMARE [1] | percentage damage caused to the plant, five point scale, ECHCG [2] | percentage damage caused to the plant, five point scale, IPOHE [3] | percentage damage caused to the plant, five point scale, LOLPE (Lolium perenne (LOLPE) [4]) | percentage damage caused to the plant, five point scale, SETFA (Setaria faberi (SETFA) [5]) | percentage damage caused to the plant, five point scale, SOLNI (Solanum nigrum (SOLNI) [6]) | Control of weed species after pre-emergence application, AMARE (percentage damage, five point scale) [7] | Control of weed species after pre-emergence application, SOLNI (percentage damage, five point scale) (Solanum nigrum (SOLNI) [8]) | Control of weed species after pre-emergence application, ECHCG (percentage damage, five point scale) [9] | Control of weed species after pre-emergence application, IPOHE (percentage damage, five point scale) [10] | Control of weed species after pre-emergence application, LOLPE (percentage damage, five point scale) (Lolium perenne (LOLPE) [11]) | Control of weed species after pre-emergence application, SETFA (percentage damage, five point scale) (Setaria faberi (SETFA) [12])
Cc1nn(C)c(=O)c(-c2c(F)ccc(Cl)c2CCc2ccccc2C#N)c1O [Compound A-1.029] | 4 (4=60-79%) | 2 (2=20-39%) | 5 (5=80-100%) | 4 (4=60-79%) | 4 (4=60-79%) | 5 (5=80-100%) | 3 (3=40-59%) | 5 (5=80-100%) | 5 (5=80-100%) | 1 (1=0-19%) | 2 (2=20-39%) | 1 (1=0-19%)
CC(=O)Nc1ccc(CCc2c(Cl)ccc(F)c2-c2c(O)c(C)nn(C)c2=O)cc1 [Compound A-1.024] | 5 (5=80-100%) | 4 (4=60-79%) | 5 (5=80-100%) | 5 (5=80-100%) | 5 (5=80-100%) | 5 (5=80-100%) | 5 (5=80-100%) | 5 (5=80-100%) | 2 (2=20-39%) | 0 | 4 (4=60-79%) | 5 (5=80-100%)
CCN(C)C(=O)c1ccc(CCc2c(Cl)ccc(F)c2-c2c(O)c(C)nn(C)c2=O)cc1F [Compound A-1.028, 4-[2-[6-chloro-3-fluoro-2-(5-hydroxy-2,6-dimethyl-3-oxo-pyridazin-4-yl)phenyl]ethyl]-N-ethyl-2-fluoro-N-methyl-benzamide] | 5 (5=80-100%) | 5 (5=80-100%) | 5 (5=80-100%) | 5 (5=80-100%) | 5 (5=80-100%) | 5 (5=80-100%) | 5 (5=80-100%) | 5 (5=80-100%) | 4 (4=60-79%) | 5 (5=80-100%) | 5 (5=80-100%) | 5 (5=80-100%)
CNc1ccc(CCc2c(Cl)ccc(F)c2-c2c(O)c(C)nn(C)c2=O)cc1 [Compound A-1.034] | 5 (5=80-100%) | 1 (1=0-19%) | 5 (5=80-100%) | 5 (5=80-100%) | 5 (5=80-100%) | 5 (5=80-100%) | 0 | 2 (2=20-39%) | 0 | 0 | 0 | 0
Cc1nn(C)c(=O)c(-c2c(F)ccc(Cl)c2CCc2ccc(-n3cncn3)cc2)c1O [Compound A-1.385, 4-[3-chloro-6-fluoro-2-[2-[4-(1,2,4-triazol-1-yl)phenyl]ethyl]phenyl]-5-hydroxy-2,6-dimethyl-pyridazin-3-one] | 5 (5=80-100%) | 5 (5=80-100%) | 5 (5=80-100%) | 5 (5=80-100%) | 5 (5=80-100%) | 5 (5=80-100%) | 5 (5=80-100%) | 5 (5=80-100%) | 5 (5=80-100%) | 5 (5=80-100%) | 5 (5=80-100%) | 5 (5=80-100%)
Cc1nn(C)c(=O)c(-c2c(F)ccc(Cl)c2CCc2ccc(S(C)(=O)=O)cc2)c1O [Compound A-1.032] | 5 (5=80-100%) | 5 (5=80-100%) | 5 (5=80-100%) | 5 (5=80-100%) | 5 (5=80-100%) | 5 (5=80-100%) | 5 (5=80-100%) | 5 (5=80-100%) | 5 (5=80-100%) | 2 (2=20-39%) | 5 (5=80-100%) | 5 (5=80-100%)
Cc1nc(-c2ccc(CCc3c(Cl)ccc(F)c3-c3c(O)c(C)nn(C)c3=O)cc2)cs1 [Compound A-1.383] | 5 (5=80-100%) | 5 (5=80-100%) | 5 (5=80-100%) | 5 (5=80-100%) | 5 (5=80-100%) | 5 (5=80-100%) | 5 (5=80-100%) | 5 (5=80-100%) | 4 (4=60-79%) | 5 (5=80-100%) | 3 (3=40-59%) | 4 (4=60-79%)
